Data: patent US6977246B2, “Certain dinucleotides and their use as modulators of mucociliary clearance and ciliary beat frequency” (Inspire Pharmaceuticals, Inc., priority 1997, dated 2005)
Structures can show the parent of a compound that is named as a salt. Where two headings read alike, the source gives them in different places.

Columns and labels:
P2Y6 receptor = P2Y6 receptor (Homo sapiens, UniProt Q15077); test: inositol phosphate assay, P2Y6 receptor activity
From the text: (§1) The pharmaceutical utility of compounds of this invention are indicated by the inositol phosphate assay for P2Y2 and other P2Y receptor activity. […] 116, 1619-27 (1995), relies on the measurement of inositol phosphate formation as a measurement of activity of compounds activating receptors linked via G-proteins to phospholipase C.

P2Y1 receptor [1] = target: T1, P2Y1 receptor (Homo sapiens, UniProt P47900); test: cell-based
From the text: as §1

P2Y2 receptor = P2Y2 receptor (Homo sapiens, UniProt P41231); test: inositol phosphate assay, P2Y2 receptor activity
From the text: as §1

P2Y4 receptor = P2Y4 receptor (Homo sapiens, UniProt P51582); test: inositol phosphate assay, P2Y4 receptor activity
From the text: as §1

P2Y1 receptor [2] = target: T1, P2Y1 receptor; test: inositol phosphate assay, P2Y1 receptor activity; conditions: inositol phosphate formation
From the text: as §1

[3] = normal volunteers; cited from earlier work
[4] = read-out: EC50 P2Y6, inositol phosphate formation
[5] = read-out: EC50 P2Y2, inositol phosphate formation
[6] = read-out: EC50 P2Y4, inositol phosphate formation

Chain of P2Y2 receptor (P41231 whole entry): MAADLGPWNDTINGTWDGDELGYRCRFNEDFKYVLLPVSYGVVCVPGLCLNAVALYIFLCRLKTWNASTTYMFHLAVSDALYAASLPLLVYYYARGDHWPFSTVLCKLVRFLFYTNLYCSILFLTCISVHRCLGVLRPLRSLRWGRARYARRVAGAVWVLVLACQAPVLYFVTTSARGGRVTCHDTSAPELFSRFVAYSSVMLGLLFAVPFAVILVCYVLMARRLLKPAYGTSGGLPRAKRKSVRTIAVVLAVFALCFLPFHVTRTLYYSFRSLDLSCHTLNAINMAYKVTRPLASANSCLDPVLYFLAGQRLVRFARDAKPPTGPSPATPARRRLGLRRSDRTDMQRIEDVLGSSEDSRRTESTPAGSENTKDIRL
Chain of P2Y6 receptor (Q15077 whole entry): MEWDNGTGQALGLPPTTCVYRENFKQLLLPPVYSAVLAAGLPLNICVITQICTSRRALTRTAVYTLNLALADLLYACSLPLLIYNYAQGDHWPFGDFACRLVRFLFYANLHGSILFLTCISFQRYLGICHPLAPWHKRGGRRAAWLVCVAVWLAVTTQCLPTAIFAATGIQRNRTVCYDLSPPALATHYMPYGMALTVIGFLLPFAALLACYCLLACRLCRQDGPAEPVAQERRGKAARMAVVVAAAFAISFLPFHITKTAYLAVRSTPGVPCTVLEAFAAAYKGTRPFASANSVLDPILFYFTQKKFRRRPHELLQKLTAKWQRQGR
T1 sequence (P47900 whole entry): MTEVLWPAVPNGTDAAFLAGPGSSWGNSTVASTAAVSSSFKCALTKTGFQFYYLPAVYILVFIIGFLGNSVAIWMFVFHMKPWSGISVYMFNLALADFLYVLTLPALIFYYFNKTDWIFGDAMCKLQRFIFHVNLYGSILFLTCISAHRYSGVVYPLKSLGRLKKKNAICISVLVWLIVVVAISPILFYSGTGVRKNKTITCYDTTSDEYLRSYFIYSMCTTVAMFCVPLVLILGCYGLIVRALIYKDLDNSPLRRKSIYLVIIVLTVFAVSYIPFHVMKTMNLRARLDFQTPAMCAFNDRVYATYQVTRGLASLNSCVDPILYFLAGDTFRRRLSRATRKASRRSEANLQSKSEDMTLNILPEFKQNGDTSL
Chain of P2Y4 receptor (P51582 whole entry): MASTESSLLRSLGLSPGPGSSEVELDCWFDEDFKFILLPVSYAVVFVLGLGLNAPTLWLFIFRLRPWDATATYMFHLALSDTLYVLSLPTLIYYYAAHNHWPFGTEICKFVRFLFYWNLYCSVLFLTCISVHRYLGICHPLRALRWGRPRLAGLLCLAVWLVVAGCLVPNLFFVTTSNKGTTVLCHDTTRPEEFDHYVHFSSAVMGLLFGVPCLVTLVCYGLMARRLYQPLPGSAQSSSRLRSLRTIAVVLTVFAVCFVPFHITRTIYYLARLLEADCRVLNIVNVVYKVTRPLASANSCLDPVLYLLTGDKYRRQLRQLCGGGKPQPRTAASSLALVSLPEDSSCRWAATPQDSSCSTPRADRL

| EC50 (P2Y6 receptor) | EC50 (P2Y2 receptor) | EC50 (P2Y4 receptor) | Compound | also measured |
| --- | --- | --- | --- | --- |
| 2560 nM | 630 nM | 1190 nM | O=c1ccn([C@@H]2O[C@H](COP(=O)(O)OP(=O)(O)NP(=O)(O)OP(=O)(O)OC[C@H]3O[C@@H](n4ccc(=O)[nH]c4=O)[C@H](O)[C@@H]3O)[C@@H](O)[C@H]2O)c(=O)[nH]1 [Example 3, P^1,P^4-Di(uridine 5′-P^2,P^3-imidotetraphosphate)] | EC50 (P2Y1 receptor [1]): 3670 nM |
| 540 nM | 200 nM | 130 nM | Cc1cn([C@H]2C[C@H](N=[N+]=[N-])[C@@H](COP(=O)(O)OP(=O)(O)OP(=O)(O)OP(=O)(O)OC[C@H]3O[C@@H](n4ccc(=O)[nH]c4=O)[C@H](O)[C@@H]3O)O2)c(=O)[nH]c1=O [Example 13, P^1-(3′-Azido-3′-deoxythymidine 5′-)-P^4-(uridine 5′-)tetraphosphate] |  |
|  |  |  | O=c1ccn([C@@H]2O[C@H](COP(=O)(O)OP(=O)(O)OP(=O)(O)OP(=O)(O)OP(=O)(O)OP(=O)(O)OC[C@H]3O[C@@H](n4ccc(=O)[nH]c4=O)[C@H](O)[C@@H]3O)[C@@H](O)[C@H]2O)c(=O)[nH]1 [Example 14, P^1,P^6-Di(uridine-5′-)hexaphosphate] | EC50 (P2Y6 receptor; [4]): 3500 nM; EC50 (P2Y2 receptor; [5]): 10700 nM; EC50 (P2Y4 receptor; [6]): 14700 nM |
|  | 460 nM | 19800 nM | O=c1n([C@@H]2O[C@H](COP(=O)(O)OP(=O)(O)OP(=O)(O)OP(=O)(O)OC[C@H]3O[C@@H](n4ccc5nccn5c4=O)[C@H](O)[C@@H]3O)[C@@H](O)[C@H]2O)ccc2nccn12 [Example 6, P^1,P^4-Di(3,N^4-ethenocytidine 5′-)tetraphosphate] | EC50 P2Y6 (P2Y6 receptor; inositol phosphate formation): IA (Response < 2-fold basal); EC50 (P2Y1 receptor [1]): > 100000 nM; Percentage response of same study positive control, P2Y4 (P2Y4 receptor; inositol phosphate formation): 75% |
| 1300 nM | 190 nM | 320 nM | Nc1ccn([C@@H]2O[C@H](COP(=O)(O)OP(=O)(O)OP(=O)(O)OP(=O)(O)OC[C@H]3O[C@@H](n4ccc(=O)[nH]c4=O)[C@H](O)[C@@H]3O)[C@@H](O)[C@@H]2O)c(=O)n1 [Example 10, P^1-(Cytosine β-D-arabinofuranoside 5′-)P^4-(uridine 5′-)tetraphosphate] | Percentage response of same study positive control, P2Y4 (P2Y4 receptor; inositol phosphate formation): 65% |
| 1790 nM | 370 nM | 4160 nM | O=c1ccn([C@@H]2O[C@H](COP(=O)(O)OP(=O)(O)OP(=O)(O)OP(=O)(O)OC[C@H]3O[C@@H](n4ccc(=S)[nH]c4=O)[C@H](O)[C@@H]3O)[C@@H](O)[C@H]2O)c(=O)[nH]1 [Example 9, P^1-(4-Thiouridine 5′-)P^4-(uridine 5′-)tetraphosphate] | EC50 (P2Y1 receptor [1]): > 100000 nM |
| > 100000 nM | 5710 nM | 1000 nM | O=c1ccn([C@@H]2O[C@H](COP(=O)(O)OP(=O)(O)C(F)(F)P(=O)(O)OP(=O)(O)OC[C@H]3O[C@@H](n4ccc(=O)[nH]c4=O)[C@H](O)[C@@H]3O)[C@@H](O)[C@H]2O)c(=O)[nH]1 [Example 2, P^1,P^4-Di(uridine 5′-P^2,P^3-difluoromethylenetetraphosphate)] | Percentage response of same study positive control, P2Y4 (P2Y4 receptor; inositol phosphate formation): 80% |
|  |  |  | 2′(3′)-Benzoyl-P^1,P^4-di(uridine 5′-)tetraphosphate [Example 15] | EC50 (P2Y6 receptor; [4]): 9710 nM; EC50 (P2Y2 receptor; [5]): 640 nM; EC50 P2Y1 (P2Y1 receptor [2]): IA (Response < 2-fold basal); EC50 (P2Y4 receptor; [6]): 3720 nM |
|  |  |  | O=c1ccn([C@@H]2O[C@H](COP(=O)(O)OP(=O)(O)OP(=O)(O)O)[C@@H](O)[C@H]2O)c(=O)[nH]1 [UTP, uridine 5′-triphosphate] | improvement in lung mucociliary clearance [3]: 2.5 fold; side-effects [3]: without any significant side-effects |
| 3390 nM | 130 nM | 380 nM | O=c1ccn([C@@H]2O[C@H](COP(=O)(O)OP(=O)(O)OP(=O)(O)OP(=O)(O)OC[C@H]3O[C@@H](n4cnc5c(=O)[nH]c(=O)[nH]c54)[C@H](O)[C@@H]3O)[C@@H](O)[C@H]2O)c(=O)[nH]1 [Example 11, P^1-(Uridine 5′-)-P^4-(xanthosine 5′-)tetraphosphate] | Percentage response of same study positive control, P2Y4 (P2Y4 receptor; inositol phosphate formation): 75% |
| 800 nM | 110 nM | 150 nM | O=c1ccn([C@@H]2O[C@H](COP(=O)(O)OP(=O)(O)OP(=O)(O)OP(=O)(O)OC[C@H]3O[C@@H](n4cnc5c(=O)[nH]cnc54)[C@H](O)[C@@H]3O)[C@@H](O)[C@H]2O)c(=O)[nH]1 [Example 8, P^1-(Inosine 5′-)P^4-(uridine 5′-)tetraphosphate] |  |
| 92600 nM | 3800 nM | 2870 nM | O=c1ccn([C@@H]2O[C@H](COP(=O)(O)OP(=O)(O)OP(=O)(O)OP(=O)(O)OP(=O)(O)OC[C@H]3O[C@@H](n4ccc(=O)[nH]c4=O)[C@H](O)[C@@H]3O)[C@@H](O)[C@H]2O)c(=O)[nH]1 [Example 5, P^1,P^5-Di(uridine 5′-pentaphosphate)] | EC50 (P2Y1 receptor [1]): 31200 nM; Percentage response of same study positive control, P2Y2 (P2Y2 receptor; inositol phosphate formation): 80%; Percentage response of same study positive control, P2Y1 (P2Y1 receptor [2]): 55% |
| 920 nM | 100 nM | 390 nM | O=c1ccn([C@@H]2O[C@H](COP(=O)(O)OP(=O)(O)OP(=O)(O)OP(=O)(O)OC[C@H]3O[C@@H](n4ccc(=O)[nH]c4=O)C[C@@H]3O)[C@@H](O)[C@H]2O)c(=O)[nH]1 [Example 12, P^1-(2′-deoxyuridine 5′-)-P^4-(uridine 5′-)tetraphosphate] |  |
| 880 nM | 110 nM | 200 nM | Cc1cn([C@H]2C[C@H](O)[C@@H](COP(=O)(O)OP(=O)(O)OP(=O)(O)OP(=O)(O)OC[C@H]3O[C@@H](n4ccc(=O)[nH]c4=O)[C@H](O)[C@@H]3O)O2)c(=O)[nH]c1=O [Example 7, P^1-(Thymidine-5′-)P^4-(uridine-5′-)tetraphosphate] |  |
| 50 nM | 20 nM |  | O=c1[nH]c(=S)ccn1[C@@H]1O[C@H](COP(=O)(O)OP(=O)(O)OP(=O)(O)OP(=O)(O)OC[C@H]2O[C@@H](n3ccc(=S)[nH]c3=O)[C@H](O)[C@@H]2O)[C@@H](O)[C@H]1O [Example 4, P^1,P^4-Di(4-thiouridine 5′-tetraphosphate)] | Percentage response of same study positive control, P2Y6 (P2Y6 receptor; inositol phosphate formation): 20% |
|  | > 100000 nM | 11100 nM | O=c1ccn([C@@H]2O[C@H](COP(=O)(O)OP(=O)(O)CP(=O)(O)OP(=O)(O)OC[C@H]3O[C@@H](n4ccc(=O)[nH]c4=O)[C@H](O)[C@@H]3O)[C@@H](O)[C@H]2O)c(=O)[nH]1 [Example 1, P^1,P^4-Di(uridine 5′-)P^2,P^3-methylenetetraphosphate] | EC50 P2Y6 (P2Y6 receptor; inositol phosphate formation): IA (Response < 2-fold basal); Percentage response of same study positive control, P2Y4 (P2Y4 receptor; inositol phosphate formation): 60% |
|  |  |  | P^1,P^4-Di(2′(3′)-benzoyl uridine 5′-)tetraphosphate [Example 16] | EC50 (P2Y6 receptor; [4]): 5330 nM; EC50 (P2Y2 receptor; [5]): 790 nM; EC50 P2Y1 (P2Y1 receptor [2]): IA (Response < 2-fold basal); EC50 (P2Y4 receptor; [6]): 730 nM |

| Compound | EC50 (P2Y6 receptor) | EC50 (P2Y2 receptor) | EC50 (P2Y4 receptor) | also measured |
| --- | --- | --- | --- | --- |
| O=c1n([C@@H]2O[C@H](COP(=O)(O)OP(=O)(O)OP(=O)(O)OP(=O)(O)OC[C@H]3O[C@@H](n4ccc5nc(-c6cccc([N+](=O)[O-])c6)cn5c4=O)[C@H](O)[C@@H]3O)[C@@H](O)[C@H]2O)ccc2nc(-c3cccc([N+](=O)[O-])c3)cn12 [Example 6a, P^1,P^4-Di(imidazo[1,2-c]pyrimidin-5(6H)-one-2-(3-nitro)-phenyl-6-β-D-ribofuranoside 5′-)tetraphosphate, tetraammonium salt] | 870 nM | 300 nM | 60 nM |  |
